Read-outs that look alike come from different tables or passages of the source.
Assays:
[1] = system: Puccinia triticina; synonym: Puccinia recondita f. sp. tritici; assay: Fungicidal activity: wheat brown rust (PUCCRT), wheat seedlings; assay type: in vivo
Protocol: Technical grades of materials were dissolved in acetone, which were then mixed with nine volumes of water containing 110 ppm Triton X-100. The fungicide solutions were applied onto wheat seedlings using an automated booth sprayer to run-off. All sprayed plants were allowed to air dry prior to further handling. Wheat plants (variety Yuma) were grown from seed in a greenhouse in 50% mineral soil/50% soil-less Metro mix until the first leaf was fully emerged, with 7-10 seedlings per pot. These plants were inoculated with an aqueous spore suspension of Septoria tritici either prior to or after fungicide treatments. After inoculation the plants were kept in 100% relative humidity (one day in a dark dew chamber followed by two to three days in a lighted dew chamber at 20° C.) to permit spores to germinate and infect the leaf. The plants were then transferred to a greenhouse set at 20° C. for disease to develop. When disease symptoms were fully expressed on the 1st leaves of untreated plants, infection levels were assessed on a scale of 0 to 100 percent disease severity. Percent disease control was calculated using the ratio of disease severity on treated plants relative to untreated plants. Evaluation of Fungicidal Activity: Wheat Brown Rust (Puccinia […]; Synonym: Puccinia recondita f. Sp. Tritici; Bayer Code PUCCRT) Wheat plants (variety Yuma) were grown from seed in a greenhouse in 50% mineral soil/50% soil-less Metro mix until the first leaf was fully emerged, with 7-10 seedlings per pot. These plants were inoculated with an aqueous spore suspension of Puccinia triticina either prior to or after fungicide treatments. After inoculation the plants were kept in a dark dew room at 22° C. with 100% relative humidity overnight to permit spores to germinate and infect the leaf. The plants were then transferred to a greenhouse set at 24° C. for disease to develop. Fungicide formulation, application and disease assessment followed the procedures as described in the Example A.

[2] = system: Mycosphaerella graminicola; anamorph: Septoria tritici; assay: Fungicidal activity: leaf blotch of wheat (SEPTTR), wheat seedlings; assay type: in vivo; settings: Zymoseptoria tritici
Protocol: Evaluation of Fungicidal Activity: Leaf Blotch of Wheat (Mycosphaerella Graminicola; Anamorph: Septoria tritici; Bayer Code […]) Technical grades of materials were dissolved in acetone, which were then mixed with nine volumes of water containing 110 ppm Triton X-100. The fungicide solutions were applied onto wheat seedlings using an automated booth sprayer to run-off. All sprayed plants were allowed to air dry prior to further handling. Wheat plants (variety Yuma) were grown from seed in a greenhouse in 50% mineral soil/50% soil-less Metro mix until the first leaf was fully emerged, with 7-10 seedlings per pot. These plants were inoculated with an aqueous spore suspension of Septoria tritici either prior to or after fungicide treatments. After inoculation the plants were kept in 100% relative humidity (one day in a dark dew chamber followed by two to three days in a lighted dew chamber at 20° C.) to permit spores to germinate and infect the leaf. The plants were then transferred to a greenhouse set at 20° C. for disease to develop. When disease symptoms were fully expressed on the 1st leaves of untreated plants, infection levels were assessed on a scale of 0 to 100 percent disease severity. Percent disease control was calculated using the ratio of disease severity on treated plants relative to untreated plants.

[3] = 24 h, 100 ppm, 1 Day Protectant, wheat, read-out: Disease Control PUCCRT 1DP
[4] = 72 h, 100 ppm, 3 Day Curative, wheat, read-out: Disease Control PUCCRT 3DC
[5] = 24 h, 100 ppm, 1 Day Protectant, wheat, read-out: Disease Control SEPTTR 1DP
[6] = 72 h, 100 ppm, 3 Day Curative, wheat, read-out: Disease Control SEPTTR 3DC

SMILES	pest or weed control at 100 ppm [1, 3] [%]	pest or weed control at 100 ppm [1, 4] [%]	pest or weed control at 100 ppm [2, 5] [%]	pest or weed control at 100 ppm [2, 6] [%]	pest or weed control at 100 ppm ([1]; 24 h, read-out: Disease Control PUCCRT 1DP) [%]	pest or weed control at 100 ppm ([1]; 72 h, read-out: Disease Control PUCCRT 3DC) [%]	pest or weed control at 100 ppm ([2]; 24 h, read-out: Disease Control SEPTTR 1DP) [%]	pest or weed control at 100 ppm ([2]; 72 h, read-out: Disease Control SEPTTR 3DC) [%]
COc1ccnc(C(=O)N[C@H]2COC[C@H](OCc3ccccc3)[C@@H](OCc3ccccc3)[C@@H](C)OC2=O)c1O [Compound 49]	0 to 80	0 to 80	0 to 80	0 to 80	–	–	–	–
COc1ccnc(C(=O)N[C@H]2CO[C@@H](C)[C@H](OCC(C)C)[C@@H](OCC(C)C)COC2=O)c1OCOC(=O)C(C)C [Compound 7]	80 to 100	–	80 to 100	80 to 100	–	–	–	–
COc1ccnc(C(=O)N[C@H]2COC[C@H](OC3CCCC3)[C@@H](Oc3ccccc3)[C@H](C)OC2=O)c1O [Compound 204]	80 to 100	80 to 100	80 to 100	80 to 100	–	–	–	–
COc1ccnc(C(=O)N[C@H]2COC[C@H](OCC(C)C)[C@@H](OCC(C)C)[C@@H](COCC(C)C)OC2=O)c1O [Compound 15, N-((3S,7S,8R,9R)-7,8-diisobutoxy-9-(isobutoxymethyl)-2-oxo-1,5-dioxonan-3-yl)-3-hydroxy-4-methoxypicolinamide]	–	0 to 80	0 to 80	–	–	–	–	–
COc1ccnc(C(=O)N[C@H]2COC[C@H](OCc3ccccc3)[C@@H](OCc3ccccc3)[C@@H](C)OC2=O)c1OCOC(C)=O [Compound 51]	0 to 80	0 to 80	0 to 80	0 to 80	–	–	–	–
COc1ccnc(C(=O)N[C@H]2CO[C@@H](C)C(OCc3ccccc3)C(OCc3ccccc3)[C@H](C)OC2=O)c1OCOC(C)=O (stereo partly shown) [Compound 28]	80 to 100	80 to 100	80 to 100	80 to 100	–	–	–	–
COc1ccnc(C(=O)N[C@H]2COC[C@H](Oc3ccc(C)cc3)[C@@H](Oc3ccc(C)cc3)[C@H](C)OC2=O)c1O [Compound 206]	80 to 100	80 to 100	80 to 100	80 to 100	–	–	–	–
COc1ccnc(C(=O)N[C@H]2COC[C@H](OCC(C)C)[C@@H](OCC(C)C)COC2=O)c1O [Compound 8]	0 to 80	80 to 100	0 to 80	0 to 80	–	–	–	–
COc1ccnc(C(=O)N[C@H]2COC[C@H](Oc3ccccc3)[C@@H](OCC=C3CCCCC3)[C@H](C)OC2=O)c1O [Compound 212]	80 to 100	0 to 80	80 to 100	0 to 80	–	–	–	–
COc1ccnc(C(=O)N[C@H]2COC[C@H](Oc3ccc(F)cc3)[C@@H](OCC(C)C)[C@H](C)OC2=O)c1O [Compound 207]	80 to 100	80 to 100	80 to 100	80 to 100	–	–	–	–
COc1ccnc(C(=O)N[C@H]2COC[C@H](OCCCc3ccccc3)[C@@H](OCCCc3ccccc3)[C@H](C)OC2=O)c1O [Compound 59]	80 to 100	80 to 100	80 to 100	0 to 80	–	–	–	–
COc1ccnc(C(=O)N[C@@H]2COC[C@@H](OCc3ccccc3)[C@H](OCc3ccccc3)[C@H](C)OC2=O)c1OCOC(C)=O [Compound 41]	0 to 80	–	0 to 80	0 to 80	–	–	–	–
CCOCC(=O)OCOc1c(OC)ccnc1C(=O)N[C@H]1COC[C@H](Oc2ccc(F)cc2)[C@@H](OCC(C)C)[C@H](C)OC1=O [Compound 227]	80 to 100	80 to 100	80 to 100	80 to 100	–	–	–	–
COc1ccc(O[C@H]2[C@H](C)OC(=O)[C@@H](NC(=O)c3nccc(OC)c3O)COC[C@@H]2Oc2ccc(OC)cc2)cc1 [Compound 201]	80 to 100	–	80 to 100	0 to 80	–	–	–	–
CCOCC(=O)OCOc1c(OC)ccnc1C(=O)N[C@H]1COC[C@H](Oc2ccc(C)cc2)[C@@H](Oc2ccc(C)cc2)[C@H](C)OC1=O [Compound 225]	80 to 100	80 to 100	80 to 100	80 to 100	–	–	–	–
COc1ccnc(C(=O)N[C@H]2CO[C@@H](C)[C@H](OCC(C)C)[C@@H](OCC(C)C)COC2=O)c1O [Compound 4]	80 to 100	–	80 to 100	80 to 100	–	–	–	–
CCCO[C@H]1COC[C@H](NC(=O)c2nccc(OC)c2O)C(=O)O[C@@H](C)[C@@H]1Oc1ccccc1 [Compound 202]	80 to 100	80 to 100	80 to 100	80 to 100	–	–	–	–
COc1ccnc(C(=O)N[C@@H]2COC[C@H](OCC(C)C)[C@@H](OCC(C)C)COC2=O)c1OCOC(C)=O [Compound 14]	80 to 100	0 to 80	0 to 80	–	–	–	–	–
CCCCO[C@H]1COC[C@H](NC(=O)c2nccc(OC)c2O)C(=O)O[C@@H](C)[C@@H]1OC(=O)C(C)C [Compound 46, (3S,6S,7S,8S)-8-butoxy-3-(3-hydroxy-4-methoxypicolinamido)-6-methyl-4-oxo-1,5-dioxonan-7-yl isobutyrate]	–	–	–	–	80 to 100	80 to 100	80 to 100	80 to 100
CCOCC(=O)OCOc1c(OC)ccnc1C(=O)N[C@H]1COC[C@H](Oc2ccc(OC)cc2)[C@@H](Oc2ccc(OC)cc2)[C@H](C)OC1=O [Compound 219]	80 to 100	80 to 100	80 to 100	0 to 80	–	–	–	–
CCCCO[C@H]1COC[C@H](NC(=O)c2nccc(OC)c2OCOC(C)=O)C(=O)O[C@@H](C)[C@@H]1OC [Compound 37]	80 to 100	80 to 100	0 to 80	0 to 80	–	–	–	–
COc1ccc(O[C@H]2[C@H](C)OC(=O)[C@@H](NC(=O)c3nccc(OC)c3O)COC[C@@H]2OC(=O)C(C)C)cc1 [Compound 199]	80 to 100	–	0 to 80	–	–	–	–	–
COc1ccnc(C(=O)N[C@H]2CO[C@H](C)[C@H]3OC(C)(C)O[C@@H]3[C@@H](C)OC2=O)c1O [Compound 27]	0 to 80	0 to 80	0 to 80	0 to 80	–	–	–	–
CC[C@H]1OC(=O)[C@H](NC(=O)c2nccc(OC)c2OCOC(C)=O)COC[C@H](OCC(C)C)[C@H]1OCC(C)C [Compound 24]	0 to 80	0 to 80	0 to 80	0 to 80	–	–	–	–
COc1ccnc(C(=O)N[C@H]2COC[C@H](OCc3ccccc3)[C@@H](OCc3ccccc3)COC2=O)c1O [Compound 5, N-((3S,7S,8S)-7,8-bis(benzyloxy)-2-oxo-1,5-dioxonan-3-yl)-3-hydroxy-4-methoxypicolinamide]	0 to 80	0 to 80	0 to 80	0 to 80	–	–	–	–
